Columns and labels:
HIV-1BaL = assay: MAGI assay, anti-HIV-1BaL activity in TZMbl cells; type: cell-based; conditions: single API; 30 min pre-incubation with virus in saline, 10-fold dilution, 72 h on TZMbl cells; read-out: EC50 (95% confidence interval)
Description: MAGI assay was performed to test anti-HIV-1BaL activity. […] Virus controls containing HIV-1BaL in saline were incubated under the same conditions. Following incubation, API-HIV-1BaL mixture was diluted 10-fold and added to TZMbl cells. Following 72-hour incubation, the cells were washed and stained with X-gal and fixed. […] Infected cells were counted using CTL instrument.

HSV-2 G = assay: HSV-2 plaque reduction assay; type: cell-based; conditions: single API, 30 min pre-incubation with HSV-2 G in saline, read-out: EC50 (95% confidence interval)
Description: The HSV-2 plaque reduction assay was performed to test the anti-HSV-2 activity of ZA, CS and LA. […] Virus controls containing HSV-2 in saline were incubated under the same conditions. After incubation all dilutions and controls were diluted 1/10 in DMEM and tittered using the plaque assay. FIG. 12 and Table 10 show the results. […] The data represented the average of two independent experiments. In Table 10, the molar ratio of CS:LA:ZA in ZS-CA-LA is 1:20:100.

C. trachomatis = assay: Bactericidal activity against C. trachomatis (inclusion count in HeLa cells); type: cell-based; conditions: absence or presence of 2% VF and 20% SF, 2 hours at room temperature; LA 80 mM
Description: C. trachomatis was incubated with actives ±2% VF and 20% SF for 2 hours at room temperature. The mixtures were serially diluted 1/10 in SPG solution, applied on HeLa cells in triplicate. Images were acquired using the Cytation-5 instrument and the inclusion count was analyzed using the Gen5 software in the Cytation-5. Control conditions included HeLa cells challenged with C. trachomatis in the absence of the actives. (FIG. 15).

human sperm = assay: Sperm motility assay; type: cell-based; conditions: for Average Motility Reduction: average of nine 3-API checkerboard combinations containing the named API at this dose; for Average CI: average of nine 3-API combinations
Description: Fresh human sperm samples were obtained the day of the experiment. 100 mM stock solutions of each API in saline were prepared in advance. Immediately prior to the experiment, solutions of each API concentration to be tested were prepared via dilution with saline. These include solutions of multiple APIs added together.
The effect of each API on sperm motility and viability was determined using human donors, adding 200 μL of API's diluted in sterile saline to 50 μL of fresh semen. For motility assessments, the incubation mixture was incubated for 5 minutes and then 100 sperm were counted under the microscope by two andrology-trained researchers and classified as either non-motile or motile. If motile, the sperm were further classified according to the nature of their motility—from barely twitching with no forward progression to progressively motile. Each experiment was repeated at least three times on different days using different donors to account for natural variations in sperm properties.
The % motility for each experimental condition was calculated by normalizing the fraction of motile sperm in the experimental groups to the fraction of motile sperm in the saline control treated group, setting 100% to the average fraction of motile sperm from control experiments. For example, the % motility at concentration c would be:
Once % motility data was obtained, the synergy was measured with Compusyn software. See Chou et al., CompuSyn for drug combinations: PC software and user's guide: a computer program for quantitation of synergism and antagonism in drug combinations, and the determination of IC50. ED50 and LD50 values, which is incorporated herein by reference in its entirety. Motility data for individual API concentration as well as all double and triple API solutions was entered into the program and analyzed according to the Chou-Talalay Median Effect Principle.
Next, the synergy between each of the APIs was tested to determine if there were any synergistic effects between compounds which would allow for reduced dosages. Each of the three possible two-compound combinations were tested, followed by the combination of all three APIs. […] Synergy was calculated with Compusyn using the Chou-Talalay Median Effect approach and represented as a CI (Combination Index) value. […] The smaller the CI value for a combination, the greater the degree of synergy.
After the two-API combinations were complete, the full three-way synergy was tested using a 3×3×3 checkerboard style assay to test all 27 permutations of three chosen concentrations for each of the three APIs.
From the resulting data, the estimated effects of each of the individual API were isolated by averaging % reduction in motility and the CI values for each of the API concentrations tested. With this 3×3×3 checkerboard assay, each single concentration was tested against nine permutations of the other two APIs, meaning that each cell in Table 4 represents the average of the nine combinations involving the specified API concentration.
Synergy was calculated utilizing the Chou-Talalay median effect principle and Compusyn software which quantifies synergy as a combination index (CI) for each combination. A CI<1 signifies synergy, a CI>1 signifies antagonism and a CI=1 signifies a purely additive effect.

N. gonorrhoeae = assay: Minimal cidal concentration (MCC); type: cell-based
G. vaginalis = assay: Minimal cidal concentration (MCC); type: cell-based; conditions: 30 minutes exposure; >3 log decrease in CFU considered cidal
Ectocervical explants = conditions: 100 mM
Description: Kruskal-Wallis test with Dunn's multiple comparison) (FIG. 22).
In FIG. 23, ectocervical explants were incubated with the selected concentrations of the APIs for 24 hr in the presence or absence of 5% VF. Explants were fixed, paraffin embedded, sectioned and stained with H&E.
Ectocervical explants were exposed to the APIs 24 hr in the presence or absence of 5% VF. Supernatants were collected and analyzed for pro-inflammatory cytokines.

VEC-100 tissue = conditions: 100 mM
Description: VEC-100 tissues were incubated with APIs for 24 hr. Tissue viability was analyzed by MTT and LDH assay and TEER measurements were recorded.

[1] = Dose 1 (CS 2.95, ZA 4.75, LA 10.26 mM)
[2] = Dose 2 (CS 3.94, ZA 6.34, LA 13.70 mM)
[3] = Dose 3 (CS 5.90, ZA 9.51, LA 20.54 mM)

Row | SMILES | EC50 (HIV-1BaL) [µM] | EC50 (HSV-2 G) [µM] | inhibition of C. trachomatis infection (in words) (C. trachomatis) | Average Motility Reduction (human sperm; [1]) [%] | Average CI (human sperm; [1]) | Average Motility Reduction (human sperm; [2]) [%] | Average CI (human sperm; [2]) | Average Motility Reduction (human sperm; [3]) [%] | Average CI (human sperm; [3]) | EC50 (human sperm; single API (CS/ZA/LA study), saline, 5 min with fresh semen, % motility vs saline control) [µM] | EC90 (human sperm; single API (CS/ZA/LA study), saline, 5 min with fresh semen, % motility vs saline control, read-out: EC90) [µM] | MCC 10% AB Serum (N. gonorrhoeae; 10% AB serum) [mM] | MCC 30% AB Serum (N. gonorrhoeae; 30% AB serum) [mM] | MCC (N. gonorrhoeae; 30 minutes exposure, >3 log decrease in CFU considered cidal) [mM] | MCC No Serum (N. gonorrhoeae; no serum) [mM] | MCC (G. vaginalis) [mM] | Ectocervix: single exposure (MTT, Histology, CC) 24 h, 5% VF (Ectocervical explants) | Ectocervix: single exposure (MTT, Histology, CC) 24 h, No VF (Ectocervical explants) | VEC-100: Single exposure (MTT, TEER and LDH) 24 h, No VF (VEC-100 tissue)
1 | O=S(=O)([O-])[O-].[Cu+2] [CS, copper sulfate] | 183 | 9 | significantly inhibited infection |  |  |  |  |  |  |  |  |  |  |  |  |  |  |  | 
2 | CC(=O)[O-].CC(=O)[O-].[Zn+2] [ZA, zinc acetate] | 1960 | 780 |  | 63.47 | 0.48 | 73.77 | 0.47 | 80.09 | 0.45 | 19000 | 33200 | 100 | >100 | 100 | 100 | > 100 | No Tox | No Tox | No Tox

— patent US20260224475A1, “MULTI-COMPONENT INTRAVAGINAL RING” (priority 2023, published 2026)
